According to US20200085864A1, “Stannous Fluoride Sugar Alcohol Solid Solutions” (WhiteHill Life Sciences, LLC, priority 2018, published 2020):

Details: aqueous SnF2

For `[F][Sn][F]` [Stannous fluoride], the “Natural pH of stannous fluoride” value was “about 3.2”.
